# Data reported in US7943618B2, “Btk protein kinase inhibitors” (Roche Palo Alto LLC, priority 2007, dated 2011).
# Molecular target: T1, Btk enzyme (His-tagged, full-length) (Homo sapiens, UniProt Q06187)
# T1 construct: 5-10 nM Btk enzyme (His-tagged, full-length); His
# Assay: Bruton's Tyrosine Kinase (Btk) Inhibition Assay (33P filtration capture)
# Type: biochemical
# Conditions: Bruton's tyrosine kinase Assay (Example 34); Table I pyridazinones; 100 μM ATP
# Source text: Bruton's Tyrosine Kinase (Btk) Inhibition Assay
# The assay is a capture of radioactive ^33P phosphorylated product through filtration. The interactions of Btk, biotinylated SH2 peptide substrate (Src homology), and ATP lead to phosphorylation of the peptide substrate. Biotinylated product is bound streptavidin sepharose beads. All bound, radiolabeled products are detected by scintillation counter.
# Plates assayed are 96-well polypropylene (Greiner) and 96-well 1.2 μm hydrophilic PVDF filter plates (Millipore).
# IC50 determinations are calculated from 10 data points per compound utilizing data produced from a standard 96-well plate assay template. One control compound and seven unknown inhibitors were tested on each plate and each plate was run twice. […] The control compound was staurosporine. Background was counted in the absence of peptide substrate. Total activity was determined in the presence of peptide substrate. The following protocol was used to determine Btk inhibition.
# 1) Sample preparation: The test compounds were diluted at half-log increments in assay buffer (imidazole, glycerol-2-phosphate, EGTA, MnCl2, MgCl2, BSA).
# 2) Bead preparation • a.) rinse beads by centrifuging at 500 g • b.) reconstitute the beads with PBS and EDTA to produce a 20% bead slurry
# 3) Pre-incubate reaction mix without substrate (assay buffer, DTT, ATP, ^33P ATP) and mix with substrate (assay buffer, DTT, ATP, ^33P ATP, peptide substrate) 30° C. for 15 min.
# 4) To start assay, pre-incubate 10 μL Btk in enzyme buffer (imidazole, glycerol-2-phosphate, BSA) and 10 μL of test compounds for 10 min at RT.
# 5) Add 30 μL reaction mixture without or with substrate to Btk and compounds.
# 6) Incubate 50 μL total assay mix for 30 min at 30° C.
# 7) Transfer 40 μL of assay to 150 μL bead slurry in filter plate to stop reaction.
# 8) Wash filter plate after 30 min, with following steps • a. 3×250 μL NaCl • b. 3×250 μL NaCl containing 1% phosphoric acid • c. 1×250 μL H2O
# 9) Dry plate for 1 h at 65° C. or overnight at RT
# 10) Add 50 μL microscint-20 and count ^33P cpm on scintillation counter.
# Calculate percent activity from raw data in cpm percent activity=(sample−bkg)/(total activity−bkg)×100
# Calculate IC50 from percent activity, using one-site dose response sigmoidal model y=A+((B−A)/(1+((x/C)^D))))
# T1 sequence (Q06187 whole entry): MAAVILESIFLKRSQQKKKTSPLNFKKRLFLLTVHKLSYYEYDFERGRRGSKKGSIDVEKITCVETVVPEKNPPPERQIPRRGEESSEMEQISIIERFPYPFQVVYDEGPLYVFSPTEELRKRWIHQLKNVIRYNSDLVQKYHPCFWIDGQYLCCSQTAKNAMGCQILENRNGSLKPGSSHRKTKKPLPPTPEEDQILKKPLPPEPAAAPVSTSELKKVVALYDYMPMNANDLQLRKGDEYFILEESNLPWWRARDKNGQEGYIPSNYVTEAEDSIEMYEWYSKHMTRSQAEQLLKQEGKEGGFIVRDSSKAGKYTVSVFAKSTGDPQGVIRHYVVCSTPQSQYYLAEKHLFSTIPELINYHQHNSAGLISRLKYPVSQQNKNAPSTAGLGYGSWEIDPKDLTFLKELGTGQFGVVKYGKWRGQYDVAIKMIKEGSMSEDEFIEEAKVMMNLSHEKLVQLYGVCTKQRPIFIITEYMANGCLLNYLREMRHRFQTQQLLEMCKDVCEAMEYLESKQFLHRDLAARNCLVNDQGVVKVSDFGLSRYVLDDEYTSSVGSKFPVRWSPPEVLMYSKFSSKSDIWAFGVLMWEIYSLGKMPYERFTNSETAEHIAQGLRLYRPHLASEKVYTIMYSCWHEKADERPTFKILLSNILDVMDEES
row,IC50,SMILES
1,143 nM,"Cc1c(NC(=O)c2ccc(C(C)(C)C)cc2)cccc1-c1cc(Nc2ccnc(OCC3CCNC3)n2)c(=O)n(C)n1 (stereo not shown) [Compound I-19, 4-tert-Butyl-N-(2-methyl-3-{1-methyl-6-oxo-5-[2-(pyrrolidin-3-ylmethoxy)-pyrimidin-4-ylamino]-1,6-dihydro-pyridazin-3-yl}-phenyl)-benzamide]"
2,52 nM,"Cc1c(NC(=O)c2ccc(C(C)(C)C)cc2)cccc1-c1cc(Nc2ccnc(N3CCC(O)C3)n2)c(=O)n(C)n1 (stereo not shown) [Compound I-22, 4-tert-Butyl-N-(3-{5-[2-(3-hydroxy-pyrrolidin-1-yl) -pyrimidin-4-ylamino]-1-methyl-6-oxo-1-6-dihydro-pyridazin-3-yl}-2-methyl-phenyl)-benzamide]"
3,155 nM,Cn1nc(-c2cccc(CC(=O)N3Cc4ccccc4C3)c2)cc(Nc2ccc(C(=O)N3CCC(O)CC3)cn2)c1=O [Compound I-31]
4,206 nM,"Cn1nc(-c2cccc(CC(=O)c3ccc(C(C)(C)C)cc3)c2)cc(Nc2ccc(C(=O)N3CCOCC3)cn2)c1=O [Compound I-37, 6-{3-[2-(4-tert-Butyl-phenyl)-2-oxo-ethyl]-phenyl}-2-methyl-4-[5-(morpholine-4-carbonyl)-pyridin-2-ylamino]-2H-pyridazin-3-one]"
5,61600 nM,CC(=O)N1CCN(C(=O)Cc2cccc(-c3cc(Nc4ccc(C(=O)N5CCOCC5)cn4)c(=O)n(C)n3)c2)CC1 [Compound I-44]
6,374 nM,Cc1c(NC(=O)c2ccc(C(C)(C)O)cc2)cccc1-c1cc(Nc2ccc(C(=O)N3CCOCC3)cn2)c(=O)n(C)n1 [Compound I-15]

# Same assay, conditions: Bruton's tyrosine kinase Assay (Example 34); Table II pyridinones; 100 μM ATP
row,IC50,SMILES
1,131 nM,CNC(=O)Nc1cc(-c2cccc(NC(=O)c3ccc(C(C)(C)C)cc3)c2)cn(C)c1=O [II-27]
2,43 nM,CN(C)CCCNC(=O)Nc1cc(-c2cccc(NC(=O)c3ccc(C4CC4)cc3)c2CO)cn(C)c1=O [II-80]
3,20 nM,Cn1cc(-c2cccc(NC(=O)c3ccc(C4CC4)cc3)c2CO)cc(Nc2cccnn2)c1=O [II-95]
4,3440 nM,CNC(=O)Nc1cc(-c2cccc(CC(=O)N3Cc4ccc(F)cc4C3)c2)cn(C)c1=O [II-46]
5,< 10 nM,CN(C)c1ccc(C(=O)Nc2cccc(-c3cc(Nc4ccc(C(=O)N5CCC(N(C)C)CC5)cn4)c(=O)n(C)c3)c2CO)cc1 [II-60]
6,< 10 nM,Cn1cc(-c2cccc(NC(=O)c3ccc(C4CC4)cc3)c2CO)cc(Nc2ccc(C(=O)N3CCC3)cn2)c1=O [II-101]
7,81 nM,CCOc1cccc(Nc2cc(-c3cccc(NC(=O)c4ccc(C5CC5)cc4)c3CO)cn(C)c2=O)n1 [II-90]
8,31 nM,Cn1cc(-c2cccc(NC(=O)c3ccc(Br)cc3)c2CO)cc(Nc2ccc(C(=O)N3CCOCC3)cn2)c1=O [II-63]
9,40 nM,Cn1cc(-c2cccc(NC(=O)c3ccc([Si](C)(C)C)cc3)c2CO)cc(Nc2ccc(C(=O)N3CCOCC3)cn2)c1=O [II-76]
10,2310 nM,"CNC(=O)Nc1cc(-c2cccc(NC(=O)c3ccc(N(C)C)nc3)c2C)cn(C)c1=O [II-15, 6-Dimethylamino-N-{2-methyl-3-[1-methyl-5-(3-methyl-ureido)-6-oxo-1,6-dihydro-pyridin-3-yl]-phenyl}-nicotinamide]"
11,9930 nM,"CNC(=O)Nc1cc(-c2cccc(NC(=O)c3ccc4c(ccn4C)c3)c2C)cn(C)c1=O [II-23, 1-Methyl-1H-indole-5-carboxylic acid{2-methyl-3-[1-methyl-5-(3-methyl-ureido)-6-oxo-1,6-dihydro-pyridin-3-yl]-phenyl}-amide]"
12,54 nM,Cn1cc(-c2cccc(NC(=O)c3ccc(C4CC4)cc3)c2CO)cc(NC(=O)NCCCN2CCOCC2)c1=O [II-83]
13,< 10 nM,"CN(C)c1ccc(C(=O)Nc2cccc(-c3cc(Nc4ccc(C(=O)N5CCOCC5)cn4)c(=O)n(C)c3)c2CO)cc1 [II-49, 4-Dimethylamino-N-(2-hydroxymethyl-3-{1-methyl-5-[5-(morpholine-4-carbonyl)-pyridin-2-ylamino]-6-oxo-1,6-dihydro-pyridin-3-yl}-phenyl)-benzamide]"
14,770 nM,Cn1cc(-c2cccc(NC(=O)c3ccccc3)c2CO)cc(Nc2ccc(C(=O)N3CCOCC3)cn2)c1=O [II-67]
15,11 nM,Cn1cc(-c2cccc(NC(=O)c3ccc(C4CC4)cc3)c2CO)cc(Nc2ccc(C(=O)N3CCCC3)cn2)c1=O [II-99]
16,46 nM,CCC(O)CNC(=O)Nc1cc(-c2cccc(NC(=O)c3ccc(C4CC4)cc3)c2CO)cn(C)c1=O (stereo not shown) [II-85]
17,76 nM,C#Cc1ccc(C(=O)Nc2cccc(-c3cc(Nc4ccc(C(=O)N5CCOCC5)cn4)c(=O)n(C)c3)c2CO)cc1 [II-69]
18,< 10 nM,"Cn1cc(-c2cccc(NC(=O)c3ccc4c(c3)OCC4(C)C)c2CO)cc(Nc2ccc(C(=O)N3CCOCC3)cn2)c1=O [II-71, 3,3-Dimethyl-2,3-dihydro-benzofuran-6-carboxylic acid (2-hydroxymethyl-3-{1-methyl-5-[5-(morpholine-4-carbonyl)-pyridin-2-ylamino]-6-oxo-1,6-dihydro-pyridin-3-yl}-phenyl)-amide]"
19,13 nM,CCNC(=O)Nc1cc(-c2cccc(NC(=O)c3ccc(C(C)(C)C)cc3)c2C)cn(C)c1=O [II-5]
20,14 nM,Cn1cc(-c2cccc(NC(=O)c3ccc(C4CC4)cc3)c2CO)cc(Nc2ccc(N3CCOCC3)nn2)c1=O [II-103]

row,IC50,SMILES
1,681 nM,"CNC(=O)Nc1cc(-c2cccc(NC(=O)c3ccc(C(C)(C)C#N)cc3)c2C)cn(C)c1=O [II-42, 4-(Cyano-dimethyl-methyl)-N-{2-methyl-3-[1-methyl-5-(3-methyl-ureido)-6-oxo-1,6-dihydro-pyridin-3-yl]-phenyl}-benzamide]"
2,160 nM,Cn1cc(-c2cccc(NC(=O)c3ccc(C4CC4)cc3)c2CO)cc(NC(=O)NCCc2cccnc2)c1=O [II-79]
3,66 nM,CCn1nc(Nc2cc(-c3cccc(NC(=O)c4ccc(C5CC5)cc4)c3CO)cn(C)c2=O)ccc1=O [II-91]
4,140 nM,CC(C)n1nc(Nc2cc(-c3cccc(NC(=O)c4ccc(C5CC5)cc4)c3CO)cn(C)c2=O)ccc1=O [II-88]
5,230 nM,"CNC(=O)Nc1cc(-c2cccc(NC(=O)c3ccc(C(C)(C)O)cc3)c2C)cn(C)c1=O [II-28, 4-(1-Hydroxy-1-methyl-ethyl)-N-{2-methyl-3-[1-methyl-5-(3-methyl-ureido)-6-oxo-1,6-dihydro-pyridin-3-yl]-phenyl}-benzamide]"
6,20 nM,CN(C)c1ccc(C(=O)Nc2cccc(-c3cc(Nc4ccccn4)c(=O)n(C)c3)c2CO)cc1 [II-59]
7,85 nM,Cn1cc(-c2cccc(NC(=O)c3ccc(C(F)(F)F)cc3)c2CO)cc(Nc2ccc(C(=O)N3CCOCC3)cn2)c1=O [II-55]
8,214 nM,Cn1cc(-c2cccc(NC(=O)c3ccc(C4CC4)cc3)c2CO)cc(NC(=O)NCCc2ccccn2)c1=O [II-78]
9,< 10 nM,Cn1cc(-c2cccc(NC(=O)c3ccc(C(C)(C)F)cc3)c2CO)cc(Nc2ccc(C(=O)N3CCOCC3)cn2)c1=O [II-52]
10,< 10 nM,"Cn1cc(-c2cccc(NC(=O)c3ccc(C(C)(C)C(F)(F)F)cc3)c2CO)cc(Nc2ccc(C(=O)N3CCNCC3)cn2)c1=O [II-81, N-(2-Hydroxymethyl-3-{1-methyl-6-oxo-5-[5-(piperazine-1-carbonyl)-pyridin-2-ylamino]-1,6-dihydro-pyridin-3-yl}-phenyl)4-(2,2,2-trifluoro-1,1-dimethyl-ethyl)-benzamide]"
11,14800 nM,CNC(=O)Nc1cc(-c2cccc(CC(=O)N3Cc4cc(Cl)c(Cl)cc4C3)c2)cn(C)c1=O [II-31]
12,24 nM,Cc1ccc(Nc2cc(-c3cccc(NC(=O)c4ccc(C5CC5)cc4)c3CO)cn(C)c2=O)nn1 [II-94]
13,90 nM,Cn1cc(-c2cccc(NC(=O)c3ccc(C4CC4)cc3)c2CO)cc(Nc2cnccn2)c1=O [II-98]
14,68 nM,C[C@H](O)CNC(=O)Nc1cc(-c2cccc(NC(=O)c3ccc(C4CC4)cc3)c2CO)cn(C)c1=O [II-54]
15,114 nM,Cn1cc(-c2cccc(NC(=O)c3ccc(N4CCCCC4)cc3)c2CO)cc(Nc2ccc(C(=O)N3CCOCC3)cn2)c1=O [II-97]
16,15 nM,CCNC(=O)Nc1cc(-c2cccc(NC(=O)c3ccc(C4(F)CC4)cc3)c2CO)cn(C)c1=O [II-65]
17,31 nM,Cn1cc(-c2cccc(NC(=O)c3ccc(C4CC4)cc3)c2CO)cc(Nc2ccc(C(=O)N3CC(F)(F)C3)cn2)c1=O [II-100]
18,< 10 nM,Cn1cc(-c2cccc(NC(=O)N3Cc4ccccc4C3)c2CO)cc(Nc2ccc(C(=O)N3CCOCC3)cn2)c1=O [II-102]
19,68 nM,CC(O)CNC(=O)Nc1cc(-c2cccc(NC(=O)c3ccc(C4CC4)cc3)c2CO)cn(C)c1=O (stereo not shown) [II-86]
20,40 nM,CCNC(=O)Nc1cc(-c2cccc(NC(=O)c3ccc(C4CC4)cc3)c2CO)cn(C)c1=O [II-77]
